Assay results from patent US20110301125A1, “Method for Treating Macular Degeneration” (SANOFI-AVENTIS, priority 2008, published 2011).
“Also recorded” adds a separate entry of the source.

What was measured:
[1] = system: rat laser induced macular degeneration model (choroidal neovascularization); experiment: Example 1: rat laser-induced choroidal neovascularization, histopathology of CNV plaque thickness (first set of study); assay type: in vivo, Brown Norway rats (Rattus norvegicus)
Excerpt: Fifty male Brown Norway (strain BN/RijHsd) rats (Rattus norvegicus), 4-7 weeks old (50-124 g each), were purchased from Harlan (Indianapolis, Ind.), received in good condition. The animals were quarantined and acclimated for three (3) days. […] 50 animals were arbitrarily assigned to study groups and given permanent identification numbers.
The retinae (both eyes of each rat) were lased using a retinal lasering device with an attached Kowa PortSlit, SC14; Keeler Fison Indirect Ophthalmoscope (Lens 30 Diopter). Rats were briefly anesthetized and the eyes were dilated and coverslips were used as necessary to flatten the cornea. Each retina was lased with 186 mW, 75 μm spot sizes, 0.1 sec duration, applied to (approximately) 9-, 12- and 3-o'clock positions, 2-3 disk diameters from the optic nerve of each eye as feasible as determined by the surgeon. Rupture of the Bruch's membrane was identified by bubble formation, which occurred immediately at the site of photocoagulation. Rats were briefly anesthetized and administered fluoroscein to visualize the retinal vasculature post surgically and prior to necropsy. Representative photographs of the retinas were taken using a Kowa retinal camera for rodents. The photographs were taken to assure that vascular lesions were present immediately following the laser procedure and immediately prior to necropsy.
2-[4-(7-ethyl-5H-pyrrolo[2,3-b]pyrazin-6-yl)-phenyl]-propan-2-ol A and 2-(3-fluoro-phenyl)-4-methyl-pyrimidine-5-carboxylic acid indol-1-ylamide were formulated in vehicle twice weekly during the study. Vehicle consisted of 0.5% methylcellulose, 0.2% Tween 20 in sterile water for injection, and was formulated once weekly. 2-(3-fluoro-phenyl)-4-methyl-pyrimidine-5-carboxylic acid indol-1-ylamide test article was reconstituted in vehicle at 0.6, 2, and 6 mg/mL; 2-(3-fluoro-phenyl)-4-methyl-pyrimidine-5-carboxylic acid indol-1-ylamide control article was reconstituted at 2 mg/mL. All solutions were stored refrigerated at 2-8° C. between dose administrations, and mixed prior to each dose administration.
Animals were dosed via twice daily oral gavage at 5 mL/kg, starting immediately prior to lasing and continuing for 14 days. Dose volumes were recalculated weekly based on the most recent body weight. Note that animals were lased on two sequential days, but were sacrificed together on a single day to facilitate handling during necropsy. Therefore, animals of the first cohort (Groups 1-3) received an extra (29th) dose on the morning of Day 14 to permit terminal bleed and sacrifice within 2-4 hr of final dose administration.
The fundus was photographed on Day 0, at the time of lasing or shortly thereafter, and on Day 13 or 14, prior to sacrifice. At each time point, retinal vasculature was illuminated by intravenous (IV) injection of each animal, several minutes before photography, with 0.1 mL of a 10% solution of fluorescein dye. Each eye was dilated with a mydriatic and photographed with Kowa Small Animal Fundus Camera. The purpose of the fundus photography was to confirm the presence lesions following lasing and prior to necropsy. Any animal found not to have lesions would be removed from study and replaced.
Following fundus photography and terminal bleeds, animals were sacrificed per SOPs. […]
The slides were evaluated visually, qualitatively and semi-quantitatively. The nuclei of new vessels growing on the retinal were counted. […]

[2] = system: rat laser-induced macular degeneration model (choroidal neovascularization); experiment: Example 3: DP antagonist, plaque volume of choroidal neovascularization in rat laser-induced macular degeneration model; assay type: in vivo, brown Norway rats (Rattus norvegicus); conditions: oral, twice each day on days -1 to 14; CNV volumes measured on day 14; FIG. 4
Excerpt: FIG. 4 is a histogram of the results of an analysis of the effect of DP antagonist 2-(3-{6-[2-(2,4-dichloro-phenyl)-ethylamino]-2-methoxy-pyrimidin-4-yl}-phenyl)-2-methyl-propionic acid phosphoric acid salt (“Compound V” for purposes of this figure) on the plaque volume of choroidal neovascularization in the rat laser-induced macular degeneration model. Indomethacin was used as a positive control.
In this example, the effect of DP antagonist 2-(3-{6-[2-(2,4-dichloro-phenyl)-ethylamino]-2-methoxy-pyrimidin-4-yl}-phenyl)-2-methyl-propionic acid phosphoric acid salt (the compound) on plaque volume of choroidal neovascularization in the rat laser-induced macular degeneration model. As in the Examples discussed above, brown Norway rats (Rattus norvegicus) were used in this example. The rats received laser coagulation on day 0.[…] The compound was then administered orally twice each day on days −1 to 14. Indomethacin (positive control) was similarly administered twice daily. On day 14, the rats were sacrificed and choroidal neovascular (CNV) volumes were measured on day 14.

[3] = system: rat laser-induced macular degeneration model (choroidal neovascularization); experiment: Example 5: hPGDS inhibitor, CNV volume by flat-mount fluorescence 3D modeling in rat laser-induced macular degeneration model; assay type: in vivo, BN rats (Rattus norvegicus; strain Brown Norway); conditions: oral, twice (or once) each day on days -1 to 7; CNV volumes measured on day 7; FIGS. 6A, 6B, 6C
Procedure: FIG. 6A is a histogram of the results of the effect of the hPDGS inhibitor 2-Pyridin-2-yl-pyrimidine-5-carboxylic acid 3-[5-(1-hydroxy-1-methyl-ethyl)-1,2,4-oxadiazol-3-yl]-benzylamide (“Compound VII” for purposes of this figure) against a laser-induced choroidal neovascularization in the rat: 1st dose-response study. 2-Pyridin-2-yl-pyrimidine-5-carboxylic acid 3-[5-(1-hydroxy-1-methyl-ethyl)-1,2,4-oxadiazol-3-yl]-benzylamide was administered orally twice each day on days −1 to 7. Doxycycline was used as a positive control.
FIG. 6B is a histogram of the results of the effect of the hPDGS inhibitor 2-pyridin-2-yl-pyrimidine-5-carboxylic acid 3-[5-(1-hydroxy-1-methyl-ethyl)-1,2,4-oxadiazol-3-yl]-benzylamide (“Compound VII” for purposes of this figure) against a laser-induced choroidal neovascularization in the rat: 2nd dose-response study. 2-pyridine-2-yl-pyrimidine-5-carboxylic acid 3-[5-(1-hydroxy-1-methyl-ethyl)-1,2,4-oxadiazol-3-yl]-benzylamide was administered orally twice each day on days −1 to 7. CELEBREX was used as a positive control. […]
In this example, the effect of hPGDS antagonist 2-Pyridin-2-yl-pyrimidine-5-carboxylic acid 3-[5-(1-hydroxy-1-methyl-ethyl)-1,2,4-oxadiazol-3-yl]-benzylamide was evaluated using the rat laser-induced macular degeneration model. […] Choroidal neovascular (CNV) volumes were measured on day 7. […]

[4] = system: rat laser-induced macular degeneration model (choroidal neovascularization); experiment: Example 4: hPGDS inhibitor, plaque volume of choroidal neovascularization in rat laser-induced macular degeneration model; assay type: in vivo, brown Norway rats; conditions: oral, twice each day on days -1 to 14; measured after fourteen days; FIG. 5
Procedure: FIG. 5 is a histogram of the results of an analysis of the effect of the hPDGS inhibitor 4-Methyl-2-pyridin-2-yl-pyrimidine-5-carboxylic acid (5-fluoro-3-methyl-indol-1-yl)-amide (“Compound VI” for purposes of this figure) on the plaque volume of choroidal neovascularization in the rat laser-induced macular degeneration model. Indomethacin was used as a positive control.
In this example, the same experiment was performed with the rat laser-induced macular degeneration model to determine whether the hPDGS inhibitor 4-Methyl-2-pyridin-2-yl-pyrimidine-5-carboxylic acid (5-fluoro-3-methyl-indol-1-yl)-amide could limit the plaque volume of choroidal neovascularization
In particular, the hPDGS inhibitor 4-Methyl-2-pyridin-2-yl-pyrimidine-5-carboxylic acid (5-fluoro-3-methyl-indol-1-yl)-amide (the compound) was administered orally to the rats twice each day on days −1 to day 14. On day 0, a laser was used to induce choroidal neovascularization in the eye of the brown Norway rats. Indomethacin was administered to a control group similarly, i.e., twice each day from day −1 to day 14.
After fourteen days, the rats were sacrificed and the plaque volume of choroidal neovascularization in the eye was measured.

Cc1nc(-c2cccc(F)c2)ncc1C(=O)Nn1ccc2ccccc21 [2-(3-Fluoro-phenyl)-4-methyl-pyrimidine-5-carboxylic acid indol-1-ylamide]
reduction of CNV plaque thickness ([1]; 10 mpk, PO): 40.7%

COc1nc(NCCc2ccc(Cl)cc2Cl)cc(-c2cccc(C(C)(C)C(=O)O)c2)n1.O=P(O)(O)O [2-(3-{6-[2-(2,4-Dichloro-phenyl)-ethylamino]-2-methoxy-pyrimidin-4-yl}-phenyl)-2-methyl-propionic Acid Phosphoric Acid Salt]
limiting the volume of choroidal neovascularization [2]: very effective

CCc1c(-c2ccc(C(C)(C)O)cc2)[nH]c2nccnc12 [2-[4-(7-Ethyl-5H-pyrrolo[2,3-b]pyrazin-6-yl)-phenyl]-propan-2-ol]
reduction of CNV plaque thickness ([1]; 3 mpk, PO): 11.3%
reduction of CNV plaque thickness ([1]; 10 mpk, PO): 36.6%
reduction of CNV plaque thickness ([1]; 30 mpk, PO): 32.2%

CC(C)(O)c1nc(-c2cccc(CNC(=O)c3cnc(-c4ccccn4)nc3)c2)no1 [2-Pyridin-2-yl-pyrimidine-5-carboxylic acid 3-[5-(1-hydroxy-1-methyl-ethyl)-1,2,4-oxadiazol-3-yl]-benzylamide]
limiting CNV volume [3]: effective

CC1(C)O[C@@H]2C[C@H]3[C@@H]4CCC5=CC(=O)C=C[C@]5(C)[C@@]4(F)[C@@H](O)C[C@]3(C)[C@]2(C(=O)CO)O1 [Triamcinolone Acetonide, reference compound]
reduction of CNV plaque thickness ([1]; positive control, intravitreal injection): 25.9%

Cc1nc(-c2ccccn2)ncc1C(=O)Nn1cc(C)c2cc(F)ccc21 [4-Methyl-2-pyridin-2-yl-pyrimidine-5-carboxylic acid (5-fluoro-3-methyl-indol-1-yl)-amide]
limiting the plaque volume of choroidal neovascularization [4]: effective; also recorded: very effective
